Results as given in US7867989B2, “α-glucosidase inhibitors from lichens” (priority 2007, dated 2011).

Biological target: α-Glucosidase (EC 3.2.1.20)
Conditions: read-out: IC50 values ± SEM against α-glucosidase enzyme; pH 6.9, 37° C., 0.5 μM p-nitrophenyl α-D-glucopyranoside substrate, 250 units/mL enzyme, 50 mM sodium phosphate buffer with 100 mM NaCl
Source text: The increments in absorption at 400 nm due to the hydrolysis of PNP-G by α-glucosidase were monitored continuously with a molecular devices spectrophotometer.

## CC(C)(O)[C@H]1CC[C@]2(C)[C@H]3CC[C@@H]4[C@@]5(C)CCCC(C)(C)[C@@H]5[C@@H](O)C[C@@]4(C)[C@]3(C)CC[C@@H]12 [Zeorin, 6,22-Hopanediol]
  IC50: 100 ± 0.3 µM
